According to patent US10189887B2, “Polypeptides and uses thereof for reducing CD95-mediated cell motility” (INSERM (INSTITUT NATIONAL DE LA SANTÉ ET DE LA RECHERCHE …, priority 2014, dated 2019):
Ends that are not written are not given here.

How the values were obtained:
CD95/PLCγ1 = molecular target: T1, CD95/PLCγ1 (Homo sapiens, UniProt P19174); experiment: PLCγ1 recruitment to CD95 (immunoprecipitation and immunoblotting); format: cell-based; conditions: HEK cells co-transfected with PLCγ1 and construct
T1 construct: endogenous in cells; host or cells: CEM (human leukemic T-cell line)
T1 sequence (P19174 2-1290 limits assumed): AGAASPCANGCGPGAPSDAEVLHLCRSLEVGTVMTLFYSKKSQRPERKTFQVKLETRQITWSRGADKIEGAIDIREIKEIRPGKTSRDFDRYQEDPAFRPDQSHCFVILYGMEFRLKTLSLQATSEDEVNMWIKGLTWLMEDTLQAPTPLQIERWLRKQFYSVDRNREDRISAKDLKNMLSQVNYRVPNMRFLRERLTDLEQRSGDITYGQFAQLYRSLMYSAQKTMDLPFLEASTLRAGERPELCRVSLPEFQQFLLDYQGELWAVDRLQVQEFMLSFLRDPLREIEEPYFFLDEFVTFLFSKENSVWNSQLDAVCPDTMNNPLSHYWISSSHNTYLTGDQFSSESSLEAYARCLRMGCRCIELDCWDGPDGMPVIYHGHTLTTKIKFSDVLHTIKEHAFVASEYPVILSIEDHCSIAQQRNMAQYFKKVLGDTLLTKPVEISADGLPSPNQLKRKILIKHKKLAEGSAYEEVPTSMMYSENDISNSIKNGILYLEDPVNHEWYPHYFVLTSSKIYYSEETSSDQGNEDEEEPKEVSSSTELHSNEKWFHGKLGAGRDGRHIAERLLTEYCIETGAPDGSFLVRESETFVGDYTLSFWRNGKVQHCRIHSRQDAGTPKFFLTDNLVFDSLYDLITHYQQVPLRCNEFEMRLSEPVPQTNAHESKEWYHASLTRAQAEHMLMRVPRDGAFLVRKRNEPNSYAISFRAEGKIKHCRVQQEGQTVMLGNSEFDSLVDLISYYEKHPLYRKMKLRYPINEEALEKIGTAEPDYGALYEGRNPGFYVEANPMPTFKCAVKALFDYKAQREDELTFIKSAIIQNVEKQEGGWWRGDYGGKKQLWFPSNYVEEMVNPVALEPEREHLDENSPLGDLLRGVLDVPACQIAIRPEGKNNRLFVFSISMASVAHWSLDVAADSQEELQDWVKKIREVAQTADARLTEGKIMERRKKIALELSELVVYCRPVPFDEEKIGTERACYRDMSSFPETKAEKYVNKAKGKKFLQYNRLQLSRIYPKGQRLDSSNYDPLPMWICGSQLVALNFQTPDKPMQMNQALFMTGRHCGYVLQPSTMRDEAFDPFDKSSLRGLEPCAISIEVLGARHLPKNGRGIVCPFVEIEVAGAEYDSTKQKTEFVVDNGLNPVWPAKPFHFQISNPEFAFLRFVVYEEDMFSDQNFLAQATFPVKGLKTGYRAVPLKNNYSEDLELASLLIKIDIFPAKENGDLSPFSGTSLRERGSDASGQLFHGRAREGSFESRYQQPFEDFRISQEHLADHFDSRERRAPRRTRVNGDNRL
Description: T-cells (5×10^7 cells per condition) were stimulated with Ig-CD95L or cl-CD95L (100 ng/mL) for indicated times at 37° C. Cells were lysed, incubated with APO1.3 (1 ug/mL) for 15 min at 4° C. and CD95 was immunoprecipitated using A/G protein-coupled magnetic beads (Ademtech, Pessac, France) for 1 h. After extensive washing, the immune complex was resolved by SDS-PAGE and immunoblotting was performed with indicated antibodies.
Cells were lyzed for 30 minutes at 4° C. in lysis buffer (25 mM HEPES pH 7.4, 1% v/v Triton X-100, 150 mM NaCl, 2 mM EGTA supplemented with a mix of protease inhibitors (Sigma-Aldrich)). Protein concentration was determined by the bicinchoninic acid method (PIERCE, Rockford, Ill., USA) according to the manufacturer's protocol. Proteins were separated on a 12% SDS-PAGE and transferred to a nitrocellulose membrane (GE Healthcare, Buckinghamshire, England). The membrane was blocked 15 minutes with TBST (50 mM Tris, 160 mM NaCl, 0.05% v/v Tween 20, pH 7.8) containing 5% w/v dried skimmed milk (TBSTM). Primary antibody was incubated overnight at 4° C. in TBSTM. The membrane was intensively washed (TBST) and then the peroxydase-labeled anti-rabbit or anti-mouse (SouthernBiotech, Birmingham, Ala., US) was added for 45 minutes. The proteins were visualized with the enhanced chemiluminescence substrate kit (ECL, GE Healthcare).

[1] = system: CD95-mediated Ca^2+ response; experiment: Calcium response to cl-CD95L in Jurkat cells (Fura2/FuraPE3 video imaging); format: cell-based; conditions: Jurkat pre-incubated 1 hr, 10 μM peptide; 100 ng/ml cl-CD95L
Description: (§1) Cells were loaded with Fura2-AM (1 μM) at resting temperature for 30 min in Hank's Balanced Salt Solution (HBSS). After washing with HBSS, the cells were incubated for 15 min in the absence of Fura2-AM to complete de-esterification of the dye. Cells were placed in a thermostated chamber (37° C.) of an inverted epifluorescence microscope (Olympus IX70) equipped with a ×40, UApo/340-1.15 W water-immersion objective (Olympus), and fluorescence micrograph images were captured at 510 nm and at 12-bit resolution by a fast-scan camera (CoolSNAP fx Monochrome, Photometrics). To minimize UV light exposure, 4×4 binning function was used. Fura2-AM was alternately excited at 340 and 380 nm, and ratios of the resulting images (excitations at 340 and 380 nm and emission filter at 520 nm) were produced at constant intervals (5 s or 10 s according to the stimulus). […] Fluorescent images were pseudocolored using the IMD display mode in MetaFluor and assembled without further manipulation in Photoshop (Adobe). Raw data were acquired with MetaFluor and graphed in Origin (OriginLab). [Ca^2+]i was calculated using the following equation: [Ca^2+]i=Kd(R−Rmin)/(R−Rmax)×Sf2/Sf1, where Kd is the Fura2-AM dissociation constant at the two excitation wavelengths (F340/F380); Rmin is the fluorescence ratio in the presence of minimal calcium, obtained by chelating Ca^2+ with 10 mM EGTA; Rmax is the fluorescence ratio in the presence of excess calcium, obtained by treating cells with 1 μM ionomycin; Sf2 is the fluorescence of the Ca^2+-free form; and Sf1 is the fluorescence of the Ca^2+-bound form of Fura2-AM at excitation wavelengths of 380 and 340 nm, respectively. In some experiments cells were placed in a Ca^2+-free medium consisting of the HBSS described above in which CaCl2 was omitted and 100 μM EGTA was added in order to chelate residual Ca^2+ ions. This medium was added to the cells just before recording to avoid leak of the intracellular calcium stores.
T cells were loaded with Fura-PE3-AM (1 μM) at room temperature for 30 min in Hank's Balanced Salt Solution (HBSS). After washing, the cells were incubated for 15 min in the absence of Fura-PE3-AM to complete de-esterification of the dye. Cells were placed in the temperature controlled chamber (37° C.) of an inverted epifluorescence microscope (Olympus IX70) equipped with an ×40 UApo/340-1.15 W water-immersion objective (Olympus), and fluorescence micrograph images were captured at 510 nm and 12-bit resolution by a fast-scan camera (CoolSNAP fx Monochrome, Photometrics). To minimize UV light exposure, a 4×4 binning function was used. Fura-PE3 was alternately excited at 340 and 380 nm, and the ratios of the resulting images (emission filter at 520 nm) were produced at constant intervals (10 seconds). The Fura-PE3 ratio (Fratio 340/380) images were analyzed offline with Universal Imaging software, including Metafluor and Metamorph. Fratio reflects the intracellular Ca^2+ concentration changes. Each experiment was repeated 3 times, and the average of more than 20 single-cell traces was analyzed.

[2] = system: CD95-mediated Ca^2+ response; experiment: Calcium response to cl-CD95L in activated PBL; format: cell-based, human; conditions: activated PBL pre-incubated 1 hr, 10 μM peptide; 100 ng/ml cl-CD95L
Description: as §1
All cells were purchased from ATCC (Molsheim Cedex, France). T leukemic cell lines CEM, H9 and Jurkat were cultured in RPMI supplemented with 8% heat-inactivated FCS (v/v) and 2 mM L-glutamine at 37° C. in a 5% CO2 incubator. CEM-IRC cell expressing a low amount of plasma membrane CD95 was described in (Beneteau et al., 2007; Beneteau et al., 2008). […]
T cells were loaded with Fura-PE3-AM (1 μM) at room temperature for 30 min in Hank's Balanced Salt Solution (HBSS). […] Cells were placed in the temperature controlled chamber (37° C.) of an inverted epifluorescence microscope (Olympus IX70) equipped with an ×40 UApo/340-1.15 W water-immersion objective (Olympus), and fluorescence micrograph images were captured at 510 nm and 12-bit resolution by a fast-scan camera (CoolSNAP fx Monochrome, Photometrics). […]

[3] = system: CD95-mediated Ca^2+ response; experiment: Calcium response to cl-CD95L in MEF; format: cell-based; conditions: MEFs pre-incubated 1 hr, 10 μM peptide; 100 ng/ml cl-CD95L
Description: Cells were loaded with Fura2-AM (1 μM) at resting temperature for 30 min in Hank's Balanced Salt Solution (HBSS). After washing with HBSS, the cells were incubated for 15 min in the absence of Fura2-AM to complete de-esterification of the dye. Cells were placed in a thermostated chamber (37° C.) of an inverted epifluorescence microscope (Olympus IX70) equipped with a ×40, UApo/340-1.15 W water-immersion objective (Olympus), and fluorescence micrograph images were captured at 510 nm and at 12-bit resolution by a fast-scan camera (CoolSNAP fx Monochrome, Photometrics). To minimize UV light exposure, 4×4 binning function was used. Fura2-AM was alternately excited at 340 and 380 nm, and ratios of the resulting images (excitations at 340 and 380 nm and emission filter at 520 nm) were produced at constant intervals (5 s or 10 s according to the stimulus). […] Fluorescent images were pseudocolored using the IMD display mode in MetaFluor and assembled without further manipulation in Photoshop (Adobe). Raw data were acquired with MetaFluor and graphed in Origin (OriginLab). […]

Substance | interaction with PLCγ1 (co-immunoprecipitation) (CD95/PLCγ1) | PLCγ1 recruitment to CD95 (CD95/PLCγ1; CD95L 100 ng/mL) | calcium response to cl-CD95L [1] | calcium response to cl-CD95L [2] | initial phase of the calcium response to cl-CD95L [3]
CD95^(175-210)-mCherry: construct consisting of CD95 amino acids 175 to 210 (calcium-inducing domain) fused to mCherry, expressed in HEK cells (KRKEVQKTCRKHRKENQGSHESPTLNPETVAINLSD-mCherry) | interacted with PLCγ1 | inhibited its recruitment to CD95 | – | – | –
TAT peptide control: TAT control peptide, SEQ ID NO: 5 (RKKRRQRRRGGSIELDDPRPR; TAT-CONTROL) [reference compound] | – | – | did not significantly modify the calcium response | did not significantly modify the calcium response | did not modify the initial phase
